Experiments:
human VDAC1 = biological target: T1, human VDAC1 (Homo sapiens, UniProt P21796); assay: Affinity labeling of Δpor1 yeast mitochondria expressing human VDAC1; type: binding; settings: Δpor1 strains with plasmid expressing human VDAC1
T1 construct: expressed in transfected cells; host or cells: Δpor1 yeast strain transformed with a human VDAC1 plasmid; isolated mitochondria
From the text: (§1) To further confirm VDAC1 as the protein target of Spiro[cyclopentane-1,5′-[5H]dibenzo[a,d]cyclohepten]-2-one,10′,11′-dihydro-3-methylene-, the labeling of proteins in mitochondria prepared from yeasts by Spiro[cyclopentane-1,5′-[5H]dibenzo[a,d]cyclohepten]-2-one,10′,11′-t2-10′,11′-dihydro-3-methylene- was investigated. […] Increasing concentration of unlabelled Spiro[cyclopentane-1,5′-[5H]dibenzo[a,d]cyclohepten]-2-one,10′,11′-dihydro-3-methylene-inhibited incorporation of the radioactivity (FIG. 9).

YVDAC1 [1] = assay: Affinity labeling of yeast mitochondria (Δpor1 and Δpor1 expressing YVDAC1); type: binding; settings: Δpor1 strains
From the text: (§2) FIG. 9: Spiro[cyclopentane-1,5′-[5H]dibenzo[a,d]cyclohepten]-2-one,10′,11′-t2-10′,11′-dihydro-3-methylene affinity labeling of yeast mitochondria lacking the por1 gene for YVDAC1 (Δpor1) and into Δpor1 yeast mitochondria transfected with YVDAC1 in presence or absence of different concentrations of Spiro[cyclopentane-1,5′-[5H]dibenzo[a,d]cyclohepten]-2-one,10′,11′-dihydro-3-methylene (unlabeled). The fluorograms of gels after SDS-PAGE are shown. Mitochondria isolated from yeast strains were incubated in the presence of 10 nM Spiro[cyclopentane-1,5′-[5H]dibenzo[a,d]cyclohepten]-2-one,10′,11′-t2-10′,11′-dihydro-3-methylene for 15 min at 25° C. Numbers indicate the concentrations (μM) of the various compounds added.
as §1

YVDAC1 [2] = biological target: T2, YVDAC1 (Saccharomyces cerevisiae, UniProt P04840); assay: as above; type: binding; settings: Δpor1 strains with plasmid expressing YVDAC1
T2 construct: expressed in transfected cells; host or cells: Δpor1 yeast strain carrying a YVDAC1 plasmid; isolated mitochondria
T2 sequence (P04840 2-283): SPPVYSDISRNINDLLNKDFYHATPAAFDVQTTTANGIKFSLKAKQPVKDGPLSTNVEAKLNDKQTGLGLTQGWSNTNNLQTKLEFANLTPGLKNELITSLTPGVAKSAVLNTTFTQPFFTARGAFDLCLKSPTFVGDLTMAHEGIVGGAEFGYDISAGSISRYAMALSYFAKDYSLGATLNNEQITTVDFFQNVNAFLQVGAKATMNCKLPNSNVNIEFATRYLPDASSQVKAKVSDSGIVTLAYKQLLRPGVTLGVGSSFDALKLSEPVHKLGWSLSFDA
From the text: as §2, §1

VDAC1 = biological target: T3, VDAC1 (Rattus norvegicus, UniProt Q9Z2L0); assay: Affinity labeling of rat mitochondria with the tritiated spiro compound, SDS-PAGE and fluorography; type: binding
T3 construct: from tissue; host or cells: Percoll-purified rat brain and liver mitochondria
T3 sequence (Q9Z2L0 whole entry): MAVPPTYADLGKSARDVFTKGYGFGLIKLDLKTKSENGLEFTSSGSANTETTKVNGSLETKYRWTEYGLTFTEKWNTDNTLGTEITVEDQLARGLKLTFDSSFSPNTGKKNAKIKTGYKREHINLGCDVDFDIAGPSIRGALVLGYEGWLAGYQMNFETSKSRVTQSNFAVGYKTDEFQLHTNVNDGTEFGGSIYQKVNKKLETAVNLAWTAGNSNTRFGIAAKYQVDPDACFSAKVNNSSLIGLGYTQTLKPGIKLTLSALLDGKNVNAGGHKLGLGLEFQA
Method: FIG. 6: Affinity-labeling of isolated rat brain (A) and liver (B) mitochondria. Mitochondrial preparations were incubated in the presence of 10 nM Spiro[cyclopentane-1,5′-[5H]dibenzo[a,d]cyclohepten]-2-one,10′,11′-t2-10′,11′-dihydro-3-methylene- for 15 min at 25° C. in presence or absence of various concentrations of Spiro[cyclopentane-1,5′-[5H]dibenzo[a,d]cyclohepten]-2-one,10′,11′-dihydro-3-methylene-(unlabeled). Samples were submitted to SDS-PAGE (see Experimental Procedures section for details) and fluorography. The fluorograms of the gels are shown. The molecular mass scale (kDa) is shown in the ordinate.
(§3) FIG. 8: (A) Effect of monobromobimano (MBBM) and phenylarsino oxide (PhAO) on VDAC1 labeling by Spiro[cyclopentane-1,5′-[5H]dibenzo[a,d]cyclohepten]-2-one,10′,11′-t2-10′,11′-dihydro-3-methylene- in rat brain mitochondria. Experimental conditions were as in the legend to FIG. 5. (B) Effect of various MPTP inhibitors, atractyloside (ATR) and DIDS on VDAC1 labeling by Spiro[cyclopentane-1,5′-[5H]dibenzo[a,d]cyclohepten]-2-one,10′,11′-t2-10′,11′-dihydro-3-methylene- in rat brain mitochondria. Mitochondria were exposed to DIDS for 5 min before rinsing for removal of the free agent and labeling with Spiro[cyclopentane-1,5′-[5H]dibenzo[a,d]cyclohepten]-2-one,10′,11′-t2-10′,11′-dihydro-3-methylene.
Percoll purified mitochondria (˜30 μg protein per sample) were incubated in the presence of 10 nM Spiro[cyclopentane-1,5′-[5H]dibenzo[a,d]cyclohepten]-2-one,10′,11′-t2-10′,11′-dihydro-3-methylene- in a final volume of 200 μl. After incubation for 15 min at 25° C., samples were centrifuged at 25000×g and the mitochondrial pellet rinsed twice with buffer. Samples were then solubilized in sample buffer containing β-mercaptoethanol (1 h at 37° C.) and subjected to SDS-polyacrylamide gel-electrophoresis (SDS-PAGE) on Tris-glycine Novex pre-cast mini-gels (12% monomer concentration, Invitrogen BV, The Netherlands). After Coomassie Blue staining, gels were processed for fluorography by soaking in Amplify™ (Amersham Biosciences), drying and exposing to X-ray BioMax MS film with BioMax MS intensifying screen (Kodak) at −80° C. for the appropriate time.
as §3, with “Effect” for “FIG. 8: (A) Effect”, “monobromobimano” for “monobromobimano (MBBM)”, “oxide” for “oxide (PhAO)”, “Example 12 (FIG. 8A).” for “the legend to FIG. 5. (B)”, “Spiro[cyclopentane-1,5′-[5H]dibenzo[a,d]cyclohepten]-2-one,10′,11′-t2-10′,11′-dihydro-3-methylene (FIG. 8B).” for “Spiro[cyclopentane-1,5′-[5H]dibenzo[a,d]cyclohepten]-2-one,10′,11′-t2-10′,11′-dihydro-3-methylene.”

MPTP [3] = biological target: T4, MPTP (Rattus norvegicus, UniProt Q9Z2L0); assay: Ca2+-retention capacity of rat brain mitochondria (Calcium Green-5N); type: biochemical; settings: Ca2+ pulses, rat brain mitochondria
T4 construct: other: n=2; glutamate/malate; other: glutamate/malate; 20 min; mean±SEM; unit not given; other: 300 nM; relieved by 50 μM Ub5
T4 sequence (Q9Z2L0 2-283): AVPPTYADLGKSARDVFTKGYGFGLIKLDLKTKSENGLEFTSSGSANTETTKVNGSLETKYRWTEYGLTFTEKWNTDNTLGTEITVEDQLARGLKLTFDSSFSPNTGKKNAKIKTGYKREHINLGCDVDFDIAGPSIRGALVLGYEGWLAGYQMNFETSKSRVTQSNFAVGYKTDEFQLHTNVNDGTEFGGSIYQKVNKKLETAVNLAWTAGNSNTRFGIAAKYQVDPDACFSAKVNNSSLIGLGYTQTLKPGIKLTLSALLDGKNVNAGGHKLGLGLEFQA
Method: FIG. 4: (A) Effect of Spiro[cyclopentane-1,5′-[5H]dibenzo[a,d]cyclohepten]-2-one,10′,11′-dihydro-3-methylene- and CsA on Ca^2+-retention capacity of rat brain mitochondria. The incubation medium contained 0.2 M sucrose, 10 mM Tris-Mops, pH 7.4, 1 mM Pi-Tris, 5 μM EGTA and 5 mM glutamate/2.5 mM malate, buffered to pH 7.4 with Tris, containing 0.01% (w/v) bovine serum albumin and 1 μM Calcium Green-5N. The final volume was 2.5 ml. Trace (a) control, (b) 1 μM CsA, (c) 1 μM Spiro[cyclopentane-1,5′-[5H]dibenzo[a,d]cyclohepten]-2-one,10′,11′-dihydro-3-methylene- and (d) 1 μM CsA plus 1 μM Spiro[cyclopentane-1,5′-[5H]dibenzo[a,d]cyclohepten]-2-one,10′,11′-dihydro-3-methylene-. Each fluorescence spike corresponds to addition of 5 μM Ca^2+. (B) Comparison of Ca^2+-retention capacity in liver (a) and brain mitochondria (b).
Effect of Spiro[cyclopentane-1,5′-[5H]dibenzo[a,d]cyclohepten]-2-one,10′,11′-dihydro-3-methylene- and CsA on Ca^2+-retention capacity of rat brain mitochondria (FIG. 4). Measurement of extramitochondrial Ca^2+ was determined using a Perkin-Elmer LS-50B fluorimeter controlled by the FL WinLab computer program. […] The final volume was 2.5 ml and the cuvette was thermostated at 25° C. Brain mitochondria were then subjected to a train of 5 μM Ca^2+ additions (˜150 nmol mg protein^−1). Extramitochondrial Ca^2+ was monitored at excitation/emission wavelengths of 505-535. […] The Ca^2+-retention capacity in liver (a) and brain mitochondria (b) were also compared (FIG. 4B).
The effect of Spiro[cyclopentane-1,5′-[5H]dibenzo[a,d]cyclohepten]-2-one,10′,11′-dihydro-3-methylene- at inhibiting MPTP was also investigated in mitochondria isolated from rat forebrain. […] Due to the difficulties mentioned above, the effect of Spiro[cyclopentane-1,5′-[5H]dibenzo[a,d]cyclohepten]-2-one,10′,11′-dihydro-3-methylene- on MPTP in brain mitochondria was more accurately investigated by subjecting mitochondria isolated from rat forebrain to a series of Ca^2+ pulses (5 μM, ˜150 nmol mg protein^−1) and by monitoring extramitochondrial Ca^2+ or using fluororescent probes.

MPTP [4] = assay: Ca2+-induced swelling (MPTP) in rat liver mitochondria energised with succinate; type: biochemical; settings: as E1, in the presence of 1 μg/ml oligomycin
Method: Ca^2+-induced swelling (sucrose permeability) in energized mitochondria was assayed at 25° C. in 96 well-plates by measuring changes in absorbance at 540 nm by means of a […]ax 250 spectrophometer controlled by the SOFTmax PRO™ software (Molecular Devices, Switzerland). The incubation medium contained 0.2 M sucrose, 10 mM Tris-Mops, pH 7.4, 1 mM Pi-Tris, 5 μM EGTA. Succinate (5 mM, in the presence of 2 μM rotenone) or 5 mM glutamate/2.5 mM malate, buffered to pH 7.4 with Tris, were used as respiratory substrates. After a short (˜5 min) preincubation in presence or absence of test compounds, mitochondrial swelling was induced by the addition of 20 μl CaCl2 at final concentrations ranging from 40 to 80 μM, depending on respiratory substrates and Ca^2+ sensitivity of the mitochondrial preparation. The final incubation volume was 0.2 ml and the concentration of mitochondria was ˜0.5 mg mitochondrial protein ml^−1. Swelling kinetics was followed for up to 30 min at 25° C. Absorbance readings were taken every 12 sec and the plate was shaken for 3 s between readings to ensure oxygen diffusion during the experiment and to avoid sedimentation of the mitochondria.
The incubation medium contained 0.2 M sucrose, 10 mM Tris-Mops, pH 7.4, 1 mM Pi-Tris, 5 μM EGTA.

T1 sequence (P21796 whole entry): as the sequence (Q9Z2L0 whole entry) above, with N55T, V129M, S160A, V227I counted along it

SMILES: [3H]C1c2ccccc2C2(CCC(=C)C2=O)c2ccccc2C1[3H] (stereo not shown) [Spiro[cyclopentane-1,5′-[5H]dibenzo[a,d]cyclohepten]-2-one,10′,11′-t2-10′,11′-dihydro-3-methylene-]
- Labeling in yeast mitochondria expressing human VDAC1 (human VDAC1): no dear labeling
- Labeling in yeast mitochondria lacking YVDAC1 (YVDAC1 [1]): virtually no labeling
- Labeling of 29 kDa band in yeast mitochondria (YVDAC1 [2]): prominent labeling
- Labeling of ~32 kDa protein (VDAC1) (VDAC1; 10 nM, intact rat brain and liver mitochondria): predominantly labeled

SMILES: Nc1ncnc2c1ncn2[C@@H]1O[C@H](COP(=O)(O)OP(=O)(O)O)[C@@H](O)[C@H]1O [ADP]
- Additive effect when combined with the spiro compound (Example 2) (MPTP [3]): additive
- EC50 (MPTP [4]): 4.8 µM
- Effect on VDAC1 labeling (incorporation of radioactivity) by the tritiated spiro compound (VDAC1; rat brain mitochondria, 10 nM radiolabel): did not affect
